Where two headings read alike, the source gives them in different places. Where a SMILES comes first, the peptide text is derived from it. Where no end group is shown, it is not given here. [ ]: non-standard residue; d: D form. The star is where a group is joined. 2Nal = N[C@@H](Cc1ccc2ccccc2c1)C(=O)O; Lauroyl = CCCCCCCCCCCC(=O)*; code J = not defined here; Octanoyl = CCCCCCCC(=O)*
How the values were obtained:
[1] = test system: P. acnes; experiment: Activity against extended panel of P. acnes; format: cell-based; design: unit not given here
Text: A very promising application for short bioactive peptides is for dermatological indications such as acne.

[2] = test system: S. aureus MRSA; experiment: Kill kinetics in lipid (liposome) environment with or without serum; format: cell-based; conditions: peptide 0.5 mg/ml; liposomes, presence or absence of serum
Text: Referring to FIG. 8, not only does lipidation improve the activity of hexapeptides in serum it improves activity in a lipid environment which is a mimic of the human acne lesion environment. The human sebaceous gland secretion, also called sebum, contains squalene, cholesterol, cholesterol esters, wax esters, and triglycerides in which a large […] of P. acnes appears to take advantage of this environment and hydrolyzes certain sebaceous lipids. The pre-pubertal and pubertal increase in sebum secretion is almost certainly involved in the pathogenesis of adolescent acne. The activity of SEQ ID NO: 55 was studied in this environment compared to P64(SEQ ID NO:90), a traditional cationic antimicrobial peptide. Due to the fact that most lipids are water insoluble, peptide-liposomes composed of phosphatidylcholine, phosphatidylglycerol and cholesterol in the molar ratio of 7:2:1 in saline were used and kill kinetics of the peptides were assessed in the presence or absence of serum.

[3] = test system: P. aeruginosa; format: cell-based; conditions: combined with polymyxin B
Description: (§1) The fractional inhibitory concentration (FIC) index was used to determine the synergy between antimicrobial agents. Peptide MICs against test microorganisms were determined three times on separate occasions. […]

[4] = test system: Pseudomonas aeruginosa; format: cell-based; design: MIC, lipid length SAR: unit not given here; conditions: P.aeruginosa
Description: (§2) MICs (minimal inhibitory concentrations) were determined for the hexapeptides of interest using a slightly modified version of the NCCLS (National Committee for Clinical Laboratory Standards) broth microdilution method as described previously (Steinberg et al., AAC 41: 1738, 1997). Briefly, antimicrobial agents were prepared as 10× concentrates in the most appropriate solvent. For the hexapeptide, 0.01% acetic acid containing 0.2% bovine serum albumin as a carrier protein was used. Inocula were prepared by resuspending colonies from a BAP (please spell out this term) in medium and adjusting the suspension to match that of a 0.5 McFarland standard. The suspension was diluted into fresh medium (as recommended by NCCLS for the organism) to give 2×10^5 to 7×10^5 CFU/ml for bacteria or 2×10^3 to 7×10^3 CFU/ml for Candida. After dispensing 100 μl aliquots of the microbial suspension into each well of a 96-well polypropylene microtiter plate, 11 μl of test compound was added. The MIC was defined as the lowest concentration of drug which prevented visible turbidity after 16 to 20 hours (bacteria) or 46 to 50 hours (Candida) at 35° C.

[5] = test system: azole resistant strains of C. albicans; format: cell-based; design: MIC-SEQ ID NO: 55 + azole, peptide part / MIC-SEQ ID NO: 55 + azole, azole part: unit not given beside the values; conditions: in combination with clotrimazole
Description: as §1
All strains are azole resistant clinical isolates from Prof. Ted White (Seattle Biotechnology Research Institute, Seattle)

[6] = test system: MRSA; experiment: Kill curve in 10% sheep serum-phosphate buffer against MRSA; format: cell-based, S. aureus; design: MRSA count in kill curve: unit not given here
[7] = test system: S. epidermidis ATCC12228; experiment: MIC, broth microdilution, S. epidermidis; format: cell-based; design: unit not given beside the values; conditions: #86: S. epidermidis ATCC12228
Description: as §2

[8] = test system: Salmonella typhimurium 14028S; experiment: MIC, broth microdilution, S. typhimurium; format: cell-based; design: unit not given here; conditions: S.typhimurium
Description: as §2

[9] = design: species or system Sprague-Dawley rats; conditions: rat, in vivo
Text: Each wound observed at each dressing change and the wound surface and tissue reaction assessed. There were 5 parameters of wound status that were checked: • i. Wound Film Security—Was the adhesive film used to cover the wound still completely adherent to the skin around the wound? • ii. Wound Surface—What was the exact visual appearance of the wound surface? • iii. Amount of Exudate—How much exudate was trapped under the film? In many cases, accumulated exudate causes the film to lose adherence and the exudates will escape. • iv. Severity of Tissue Reaction—A subjective rating of extent of tissue reaction on a scale of 1 (minimal), 2 (moderate), 3 (extensive). • v. % of Tissue Involved—In some situations, the wound surface contained denatures, friable tissue that could be wiped off with pressure applied to gauze. This test was used to better differentiate denatured tissue from viscous exudates.

[10] = test system: Trychophyton mentagrophytes; experiment: MIC100 against dermatophyte Trychophyton mentagrophytes; format: cell-based; conditions: T. mentagrophytes; at 10 days
Description: (§3) In order to compare the activity of various antimicrobial peptides, including hexapeptide SEQ ID NO:1 (P0666), MIC were determined against the dermatophytes Trychophyton rubrum and Trychophyton mentagrophytes. The concentration of samples investigated were: 2000, 1000, 500, 250 and 125 μg/ml, respectively. The medium used was modified Sabouraud's media without agar. For a 100 mL of modified Sabouraud medium: 3 g of Sabouraud's dextrose broth (Difco) was mixed into 100 mL of deionized water. The pH was adjusted to 7.0 with 0.1 N NaOH. The solution was autoclaved for thirty minutes. 940 μL of medium was poured into sterile 20 mL test tubes with plastic caps and was allowed to cool.
(§4) 50 μL of […] was added to each 20 mL test tube to make the required concentration. A control tube was composed of 50 μL of saline without sample. For the MIC experiments,
(§5) 10 μL of organism suspended in saline was added to the each 20 mL test tube and vortexed slightly. Each of the test tubes was covered in parafilm and maintained on a shaker at 27° C. at a speed of approximately 100 rpm.
(§6) The growth/inhibition of the organism was observed on a daily basis. […] The Minimum Inhibition Concentration (MIC100) for compounds F1 to F10 against fungus Trychophyton rubrum and Trychophyton mentagrophytes at 10 days.

[11] = test system: Trychophyton rubrum; experiment: MIC100 against dermatophyte Trychophyton rubrum; format: cell-based; conditions: T. rubrum; at 10 days
Description: as §3, §4, §5, §6

[12] = test system: S. aureus; experiment: Kill curve in 80% serum, S. aureus; format: cell-based
Text: It should be noted that in addition to MIC data, the lipo-hexapeptides can also be distinguished by their ability to kill bacteria in the presence of biological constituents such as serum. […] This activity, an indicator of therapeutic potential, is not obvious from the MIC data alone.

[13] = test system: Lipoteichoic acid (LTA); experiment: LTA binding assay; conditions: FIG. 7
Text: Lipoteichoic acid (LTA) is a common cell wall component of gram-positive bacteria including organisms such as S. aureus and P. acnes. The release of LTA during infection can lead to the release of mediators of the host inflammatory response which in turn can result in sepsis (septic shock). For example, when injected into animals, LTA can elicit many of the characteristic features of septic shock, including cytokine production, leukocytopenia, circulatory failure, multiple-organ dysfunction syndrome, and mortality.

CCCCCCCC(=O)N[C@@H](CCCCN)C(=O)N[C@@H](Cc1ccccc1)C(=O)N[C@@H](CCCCN)C(=O)N[C@@H](Cc1c[nH]c2ccccc12)C(=O)N1CCC[C@H]1C(=O)N[C@@H](Cc1c[nH]c2ccccc12)C(N)=O [SEQ ID NO: 55, OCT-KFKWPW-NH2] (Octanoyl-KFKWPW-NH2)
Activity (MIC) against P. acnes ([1]; ATCC 6921): 4
Activity (MIC) against P. acnes ([1]; ATCC 6922): 8
Activity (MIC) against P. acnes ([1]; ATCC 6923): 8
Activity (MIC) against P. acnes ([1]; ATCC 11828): 8
Activity (MIC) against P. acnes ([1]; ATCC 12930): 8
Activity (MIC) against P. acnes ([1]; ATCC 25746): 1
Activity (MIC) against P. acnes ([1]; ATCC 29399): 16
Activity (MIC) against P. acnes ([1]; ATCC 33179): 16
Activity (MIC) against P. acnes ([1]; ATCC 49929): 0.125
Activity (MIC) against P. acnes ([1]; ATCC 51277): 4
kill kinetics in lipid environment (in words) [2]: shown to be effective
MIC-NO: 55 combined ([3]; P. aeruginosa 100609): 2 µg/mL
MIC-NO: 55 combined ([3]; P. aeruginosa H187): 8 µg/mL
MIC-NO: 55 combined ([3]; P. aeruginosa H401): 2 µg/mL
MIC-NO: 55 combined ([3]; P. aeruginosa M917): 16 µg/mL
MIC, lipid length SAR [4]: 32
MIC-SEQ ID NO: 55 + azole, peptide part ([5]; C. albicans #185): 16
MIC-SEQ ID NO: 55 + azole, peptide part ([5]; C. albicans #186): 2
MIC-SEQ ID NO: 55 + azole, peptide part ([5]; C. albicans #187): 4
MIC-SEQ ID NO: 55 + azole, peptide part ([5]; C. albicans #192): 4
MIC-SEQ ID NO: 55 + azole, peptide part ([5]; C. albicans #196): 4
MIC-SEQ ID NO: 55 + azole, peptide part ([5]; C. albicans #199): 4
MRSA count in kill curve ([6]; buffer, 1 mg/ml, 30 min): 100
MRSA count in kill curve ([6]; buffer, 1 mg/ml, 1 hour): 100
MRSA count in kill curve ([6]; buffer, 1 mg/ml, 2 hours): 10
MRSA count in kill curve ([6]; buffer, 1 mg/ml, 3 hours): 10
MRSA count in kill curve ([6]; buffer, 1 mg/ml, 4 hours): 10
MRSA count in kill curve ([6]; buffer, 1 mg/ml, 5 hours): 10
MRSA count in kill curve ([6]; serum, 0.5 mg/ml, 30 min): 10
MRSA count in kill curve ([6]; serum, 0.5 mg/ml, 1 hour): 10
MRSA count in kill curve ([6]; serum, 0.5 mg/ml, 2 hours): 10
MRSA count in kill curve ([6]; serum, 0.5 mg/ml, 3 hours): 10
MRSA count in kill curve ([6]; serum, 0.5 mg/ml, 4 hours): 10
MRSA count in kill curve ([6]; serum, 0.5 mg/ml, 5 hours): 10
MRSA count in kill curve ([6]; serum, 1 mg/ml, 30 min): 3900
MRSA count in kill curve ([6]; serum, 1 mg/ml, 1 hour): 1100
MRSA count in kill curve ([6]; serum, 1 mg/ml, 2 hours): 100
MRSA count in kill curve ([6]; serum, 1 mg/ml, 3 hours): 30
MRSA count in kill curve ([6]; serum, 1 mg/ml, 4 hours): 20
MRSA count in kill curve ([6]; serum, 1 mg/ml, 5 hours): 60
MRSA count in kill curve ([6]; serum, 2 mg/ml, 30 min): 1000000
MRSA count in kill curve ([6]; serum, 2 mg/ml, 1 hour): 1000000
MRSA count in kill curve ([6]; serum, 2 mg/ml, 2 hours): 1000000
MRSA count in kill curve ([6]; serum, 2 mg/ml, 3 hours): 1000000
MRSA count in kill curve ([6]; serum, 2 mg/ml, 4 hours): 1000000
MRSA count in kill curve ([6]; serum, 2 mg/ml, 5 hours): 1000000
MIC [7]: 8
MIC, lipid length SAR [8]: 32

CC(C)C[C@H](NC(=O)[C@H](C)NC(=O)[C@H](CC(C)C)NC(=O)[C@H](CCCCN)NC(=O)[C@H](C)NC(=O)[C@H](CC(C)C)NC(=O)[C@H](CCCCN)NC(=O)[C@H](CCCCN)NC(=O)[C@H](C)NC(=O)[C@H](CC(C)C)NC(=O)[C@H](CCCCN)NC(=O)[C@H](C)NC(=O)[C@H](CC(C)C)NC(=O)[C@H](CCCCN)NC(=O)[C@H](CCCCN)NC(=O)[C@H](C)NC(=O)[C@@H](N)C(C)C)C(N)=O [SEQ ID NO: 88, VAKKLAKLAKKLAKLAL-NH2]
Amount of exudate [9]: S/y
tissue reaction (in words) [9]: mild to moderate

FAKALKALLKALKAL-NH2 [SEQ ID NO: 90]
kill kinetics in lipid environment (in words) [2]: shown to be effective
MIC100 [10]: 500 µg/mL
MIC100 [11]: 1000 µg/mL

KWKWJW-NH2 (KWKW[code J]W-NH2; reading uncertain; also: printed as KWKWJW-NH2) [SEQ ID NO: 60]
MIC [7]: >128

KWKWZW-NH2 (KWKW[2Nal]W-NH2) [SEQ ID NO: 63]
MIC [7]: 2

Lau-kfkwpw-NH2 (Lauroyl-[dK][dF][dK][dW][dP][dW]-NH2; SMILES CCCCCCCCCCCC(=O)N[C@H](CCCCN)C(=O)N[C@H](Cc1ccccc1)C(=O)N[C@H](CCCCN)C(=O)N[C@H](Cc1c[nH]c2ccccc12)C(=O)N1CCC[C@@H]1C(=O)N[C@H](Cc1c[nH]c2ccccc12)C(N)=O) [SEQ ID NO: 83]
killing of S. aureus in 80% serum (in words) [12]: perform very well

OCT-KWKWFW-NH2 (Octanoyl-KWKWFW-NH2; SMILES CCCCCCCC(=O)N[C@@H](CCCCN)C(=O)N[C@@H](Cc1c[nH]c2ccccc12)C(=O)N[C@@H](CCCCN)C(=O)N[C@@H](Cc1c[nH]c2ccccc12)C(=O)N[C@@H](Cc1ccccc1)C(=O)N[C@@H](Cc1c[nH]c2ccccc12)C(N)=O) [SEQ ID NO: 56]
MIC [7]: 4

SEQ ID NO:72 (Lauroyl-KFKWPW-NH2; SMILES CCCCCCCCCCCC(=O)N[C@@H](CCCCN)C(=O)N[C@@H](Cc1ccccc1)C(=O)N[C@@H](CCCCN)C(=O)N[C@@H](Cc1c[nH]c2ccccc12)C(=O)N1CCC[C@H]1C(=O)N[C@@H](Cc1c[nH]c2ccccc12)C(N)=O)
LTA binding (in words) [13]: binds LTA to the same degree as a typical highly charged alpha-helical amphipathic peptide

SEQ ID NO:83 (Lauroyl-[dK][dF][dK][dW][dP][dW]-NH2; SMILES CCCCCCCCCCCC(=O)N[C@H](CCCCN)C(=O)N[C@H](Cc1ccccc1)C(=O)N[C@H](CCCCN)C(=O)N[C@H](Cc1c[nH]c2ccccc12)C(=O)N1CCC[C@@H]1C(=O)N[C@H](Cc1c[nH]c2ccccc12)C(N)=O)
LTA binding (in words) [13]: fail to bind LTA
